The values that follow come from ChEMBL document CHEMBL4699607, “Design, synthesis, and computational validation of novel compounds selectively targeting HER2-expressing breast cancer” (Bioorg Med Chem Lett, 2020).

Test [1] deals with MCF7. In words: Cytotoxicity against human MCF-7 assessed as reduction in cell viability by SRB assay.
Test [2] concerns SK-BR-3. In words: Cytotoxicity against human SKBr3 assessed as reduction in cell viability by SRB assay.
The test system of test [3] is MCF7. In words: Cytotoxicity against human MCF-7 assessed as reduction cell viability at 10 uM by SRB assay. Type of test: functional.
Test [4] has as its system SK-BR-3. Kind of test: Cytotoxicity against human SKBr3 assessed as reduction cell viability at 10 uM by SRB assay. Type of test: functional.
Test [5] addresses Receptor tyrosine-protein kinase erbB-2 (Homo sapiens) (UniProt P04626). In words: Inhibition of HER2 (unknown origin) at 10 uM by ELISA.
Another test concerns MDA-MB-231. In words: Cytotoxicity against human MDA-MB-231 cells assessed as reduction in cell viability at 10 uM by SRB assay. Type of test: functional, cell-based.

The structures appear in SMILES notation. pIC50: −log10 of the molar value. The source made the active and inactive calls. The rule behind the calls is not given here.

Chain of Receptor tyrosine-protein kinase erbB-2 (Homo sapiens) (P04626 whole entry): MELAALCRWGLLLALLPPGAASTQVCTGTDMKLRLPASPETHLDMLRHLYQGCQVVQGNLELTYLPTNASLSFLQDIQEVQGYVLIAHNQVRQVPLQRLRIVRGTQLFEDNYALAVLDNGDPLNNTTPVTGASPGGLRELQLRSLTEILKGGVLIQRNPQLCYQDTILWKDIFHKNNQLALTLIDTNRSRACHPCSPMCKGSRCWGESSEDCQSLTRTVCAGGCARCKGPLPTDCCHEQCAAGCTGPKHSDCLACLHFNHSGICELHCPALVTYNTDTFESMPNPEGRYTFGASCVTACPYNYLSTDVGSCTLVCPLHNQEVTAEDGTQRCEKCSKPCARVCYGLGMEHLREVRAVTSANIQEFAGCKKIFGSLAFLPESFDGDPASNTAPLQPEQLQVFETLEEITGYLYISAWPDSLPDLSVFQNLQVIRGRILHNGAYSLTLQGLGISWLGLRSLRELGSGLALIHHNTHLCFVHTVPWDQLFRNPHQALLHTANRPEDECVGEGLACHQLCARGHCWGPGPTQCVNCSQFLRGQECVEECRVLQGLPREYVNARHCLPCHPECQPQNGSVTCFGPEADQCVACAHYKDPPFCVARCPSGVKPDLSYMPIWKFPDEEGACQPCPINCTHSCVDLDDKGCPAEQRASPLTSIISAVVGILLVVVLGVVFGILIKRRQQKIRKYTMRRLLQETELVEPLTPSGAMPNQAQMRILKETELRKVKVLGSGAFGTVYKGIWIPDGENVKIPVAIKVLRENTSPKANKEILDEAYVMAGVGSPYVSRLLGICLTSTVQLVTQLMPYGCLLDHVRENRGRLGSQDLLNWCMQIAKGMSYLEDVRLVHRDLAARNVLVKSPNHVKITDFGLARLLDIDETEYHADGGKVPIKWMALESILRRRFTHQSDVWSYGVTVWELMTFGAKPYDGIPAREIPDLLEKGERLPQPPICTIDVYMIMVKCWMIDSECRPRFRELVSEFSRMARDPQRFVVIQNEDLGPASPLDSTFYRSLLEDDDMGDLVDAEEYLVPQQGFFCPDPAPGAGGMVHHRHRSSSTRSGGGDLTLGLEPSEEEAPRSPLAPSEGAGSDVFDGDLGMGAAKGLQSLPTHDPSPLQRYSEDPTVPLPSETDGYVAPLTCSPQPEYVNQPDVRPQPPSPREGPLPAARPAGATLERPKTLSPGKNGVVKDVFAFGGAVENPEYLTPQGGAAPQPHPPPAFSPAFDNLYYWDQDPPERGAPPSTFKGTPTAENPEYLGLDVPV

In the case of `S=C(Nc1ccc(Cl)cc1Cl)Nc1ncccc1Br`, the pIC50 with MCF7 [1] is 5.89; with SK-BR-3 [2], 6.14. Further, the inhibition at 10 µM came to 72.4% with MCF7 [3] and 79.7% in the test on SK-BR-3 [4]. This compound also came in with an inhibition in test [5] of 87%. In addition, the inhibition result with MDA-MB-231 was “inactive”.

With `S=C(Nc1ccc(Cl)cc1Br)Nc1ncccc1Br`, the pIC50 in the test with MCF7 [1] was 5.60; with SK-BR-3 [2], 5.47. The figures for the inhibition at 10 µM in the test on MCF7 [3] and in the test with SK-BR-3 [4] were 64.1% and 74.8%, respectively. In test [5], the inhibition turned out to be 82.6%. In the test with MDA-MB-231, the inhibition entry is “inactive”.

Take `COc1ccccc1CNC(=O)NS(=O)(=O)c1ccccc1`: in the test on MCF7 [3], the inhibition at 10 µM was found to be 10.3%. Also, in the test on MDA-MB-231, the inhibition entry was “inactive”.

On to `S=C(NCCc1ccccc1)Nc1ncccc1Br`, for which the pIC50 in the test with MCF7 [1] was 4.79; in the test on SK-BR-3 [2] it was 5.95. In addition, the inhibition at 10 µM was determined as 63% in the test on MCF7 [3] and 78.8% with SK-BR-3 [4]. Further, the inhibition in test [5] was 84.7%. For the same compound, in the test with MDA-MB-231, the inhibition result was “inactive”.

On to `Cc1ccc(S(=O)(=O)NC(=O)Nc2ncccc2Br)cc1`, for which the inhibition at 10 µM in the test on MCF7 [3] was determined as 11.2%. Also, in the test with MDA-MB-231, the inhibition result was “inactive”.
